From PubChem BioAssay (NCI)
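Tested at 5 concentrations; 48 h exposure; 96-well plates; endpoints linearly interpolated, else capped at highest concentration. The concentration for 50% growth inhibition is given as GI50. The concentration for full growth arrest is given as TGI.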

Legend:
Assay in all cases: growth of human tumour cells (NCI), 48 h
[1] = tested on: HL-60(TB) leukemia
[2] = tested on: NCI-H460 lung
[3] = tested on: OVCAR-8 ovarian
[4] = tested on: SF-268 CNS
[5] = tested on: 786-0 renal
[6] = tested on: M14 melanoma
[7] = tested on: NCI/ADR-RES ovarian
[8] = tested on: COLO 205 colon
[9] = tested on: NCI-H226 lung
[10] = tested on: MOLT-4 leukemia
[11] = tested on: HOP-62 NSCLC
[12] = tested on: OVCAR-3 ovarian
[13] = tested on: MALME-3M melanoma
[14] = tested on: MCF7 breast
[15] = tested on: CAKI-1 renal
[16] = tested on: BT-549 breast
[17] = tested on: SK-OV-3 ovarian
[18] = tested on: LOX IMVI melanoma
[19] = tested on: RXF 393 renal
[20] = tested on: SF-539 CNS
[21] = tested on: U251 CNS
[22] = tested on: A498 renal
[23] = tested on: SK-MEL-2 melanoma
[24] = tested on: HCC-2998 colon
[25] = tested on: SK-MEL-5 melanoma
[26] = tested on: NCI-H522 lung
[27] = tested on: PC-3 prostate
[28] = tested on: HCT-15 colon
[29] = tested on: MDA-MB-231 breast

C/C(=C(/c1ccc(O)cc1)c1ccc(OCCN(C)C)cc1)c1ccc(Cl)cc1
GI50 [1]: 17.9 µM | TGI [1]: 39.3 µM | GI50 [2]: 17.5 µM | TGI [2]: 32.9 µM | GI50 [3]: 31 µM | TGI [3]: > 100 µM | GI50 [4]: 36.3 µM | TGI [4]: > 100 µM | GI50 [5]: 14.8 µM | TGI [5]: 29.5 µM | GI50 [6]: 17.6 µM | TGI [6]: 35.3 µM | GI50 [7]: 28.3 µM | TGI [7]: > 100 µM | GI50 [8]: 17.6 µM | TGI [8]: 33.1 µM | GI50 [9]: 54.5 µM | TGI [9]: > 100 µM | GI50 [10]: 20 µM | TGI [10]: 52.5 µM | GI50 [11]: 18.2 µM | TGI [11]: 38.7 µM | GI50 [12]: 24 µM | TGI [12]: 69 µM | GI50 [13]: 16 µM | TGI [13]: 30.9 µM | GI50 [14]: 1.69 µM | TGI [14]: 27.2 µM | GI50 [15]: 15.8 µM | TGI [15]: 40.9 µM | GI50 [16]: 40.9 µM | TGI [16]: > 100 µM | GI50 [17]: 48.7 µM | TGI [17]: > 100 µM | GI50 [18]: 17.2 µM | TGI [18]: 32.1 µM | GI50 [19]: 13.8 µM | TGI [19]: 28.1 µM | GI50 [20]: 16.1 µM | TGI [20]: 30.1 µM | GI50 [21]: 16.5 µM | TGI [21]: 31.9 µM | GI50 [22]: > 100 µM | TGI [22]: > 100 µM | GI50 [23]: 25.6 µM | TGI [23]: 84.2 µM | GI50 [24]: 18.1 µM | TGI [24]: 35.1 µM | GI50 [25]: 17.8 µM | TGI [25]: 33.5 µM | GI50 [26]: 17.4 µM | TGI [26]: 38 µM | GI50 [27]: 23.7 µM | TGI [27]: 74.8 µM | GI50 [28]: 18 µM | TGI [28]: 37.7 µM | GI50 [29]: 20.7 µM
